Ki data for 41 compounds are collected here from patent EP4631938A1, “NITROGEN-CONTAINING HETEROCYCLE WITH SEROTONIN RECEPTOR-BINDING ACTIVITY AND CARBOCYCLIC DERIVATIVE” (Shionogi & Co., Ltd, priority 2022, dated 2024).

Where two headings read alike, the source gives them in different places.

For assay [1], the target named is T1, human recombinant 5-HT2A receptor (Homo sapiens, UniProt P28223).
T1 construct: expressed in transfected cells; host or cells: Jump-In HEK cells (membrane preparation)
Briefly: Test Example 1-2: 5-HT2A receptor binding inhibition test ([3H]-Ketanserin; non-specific ligand Ketanserin). The procedure, abridged: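 Ki values were derived from dose-response inhibition of [3H]-ketanserin binding; nonspecific binding was set with 500 µmol/L ketanserin, and Kd was set for each membrane lot from Scatchard saturation plots. Incubation lasted 1.5 h at room temperature (25 °C). Bound radioligand was harvested on Tris-HCl (pH 7.4)-presoaked filters and counted.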

Assay [2] has as its target T2, human recombinant 5-HT2C receptor (Homo sapiens, UniProt P28335).
T2 construct: expressed in transfected cells; host or cells: Jump-In HEK cells (membrane preparation)
T2 sequence (P28335 33-458): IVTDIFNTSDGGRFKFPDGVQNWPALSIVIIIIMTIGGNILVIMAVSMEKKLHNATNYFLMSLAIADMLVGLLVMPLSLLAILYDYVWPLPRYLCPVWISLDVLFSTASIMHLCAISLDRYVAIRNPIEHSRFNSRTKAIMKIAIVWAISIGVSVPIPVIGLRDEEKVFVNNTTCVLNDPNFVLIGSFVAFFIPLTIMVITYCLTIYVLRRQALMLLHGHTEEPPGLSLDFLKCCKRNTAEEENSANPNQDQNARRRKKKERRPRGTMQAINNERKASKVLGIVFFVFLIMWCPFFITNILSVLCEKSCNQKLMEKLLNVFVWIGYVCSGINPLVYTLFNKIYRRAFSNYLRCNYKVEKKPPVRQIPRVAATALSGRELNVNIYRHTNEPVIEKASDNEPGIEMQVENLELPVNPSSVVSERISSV
Briefly: Test Example 2: 5-HT2C receptor binding inhibition test ([3H]-Mesulergine; non-specific ligand Serotonin HCl). The note with it: human serotonin 5-HT2C receptor binding activity. The procedure, abridged:
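Ki values come from dose-response curves of [3H]-mesulergine displacement from human 5-HT2C membranes after 2 h at 37°C, scored by scintillation counting of filter-bound radioactivity. Serotonin HCl (500 µmol/L) set non-specific binding; Kd per membrane lot was taken from Scatchard plots.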

Setting [3] is: [3H]-Ketanserin, non-specific binding with 500 µmol/L Ketanserin, room temperature (25°C), 1.5 hours, read-out: h 5-HT2A Ki.

T1 sequence (P28223 whole entry): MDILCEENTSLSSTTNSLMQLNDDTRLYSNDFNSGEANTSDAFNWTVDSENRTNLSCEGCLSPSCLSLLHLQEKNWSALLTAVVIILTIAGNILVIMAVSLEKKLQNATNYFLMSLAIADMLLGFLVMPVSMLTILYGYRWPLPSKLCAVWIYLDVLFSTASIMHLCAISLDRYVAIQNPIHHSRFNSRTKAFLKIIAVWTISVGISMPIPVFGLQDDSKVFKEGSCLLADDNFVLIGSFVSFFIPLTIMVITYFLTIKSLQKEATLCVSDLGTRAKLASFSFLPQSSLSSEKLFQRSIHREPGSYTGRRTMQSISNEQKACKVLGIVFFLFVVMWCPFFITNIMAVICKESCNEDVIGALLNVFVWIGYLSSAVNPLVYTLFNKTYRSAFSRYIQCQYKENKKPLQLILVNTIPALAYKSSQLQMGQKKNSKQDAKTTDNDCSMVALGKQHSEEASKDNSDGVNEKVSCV

On to `COCc1nc(C)c(-c2cc(Nc3ncc(-c4cnc(C(F)(F)F)nc4)cc3Cl)ncc2OCCO)c(C)n1` [Compound I-245], for which the Ki in assay [1] (setting [3]) is 5.85 nM; in assay [2], 1.41 nM.
As to `COCc1nc(C)c(-c2cc(Nc3ncc(-c4ccnc(C(F)(F)F)c4)cc3Cl)ncc2OCCO)c(C)n1` [Compound I-246], the Ki in assay [1] (setting [3]) was found to be 2.7 nM; in assay [2], 5.25 nM.
Regarding `COCc1nc(C)c(-c2cc(Nc3ccc(C(F)(F)F)c(C)n3)ncc2OCCO)c(C)n1` [Compound I-248], the Ki in assay [1] (setting [3]) was 0.794 nM; in assay [2] it was 4.78 nM.
The like results for `COCc1nc(C)c(-c2cc(Nc3ncc(-c4ncc(F)cn4)cc3Cl)ncc2OCCO)c(C)n1` [Compound I-249] were, in that order, 5.19 nM and 4.29 nM.
Consider `COCc1nc(C)c(-c2cc(Nc3ncc(-c4ccc(F)cc4)cc3F)ncc2OCCO)c(C)n1` [Compound I-251], for which the Ki in assay [1] (setting [3]) is 0.325 nM; in assay [2], 0.393 nM.
In the case of `COCc1nc(C)c(-c2cc(Nc3ncc(-c4ncc(F)cc4F)cc3Cl)ncc2OCCO)c(C)n1` [Compound I-252], the inhibitory constant (Ki) in assay [1] (setting [3]) was 3.95 nM; in assay [2] it was 3.17 nM.
In the case of `COCc1nc(C)c(-c2cc(Nc3ncc(-c4ncc(OC)cn4)cc3Cl)ncc2OCCO)c(C)n1` [Compound I-253], the inhibition constant Ki in assay [1] (setting [3]) was 2.74 nM; in assay [2] it was 4.42 nM.
As for `COCc1nc(C)c(-c2cc(Nc3ncc(-c4ccc(F)c(F)c4)cc3Cl)ncc2OCCO)c(C)n1` [Compound I-254], the inhibitory constant (Ki) stood at 0.496 nM in assay [1] (setting [3]) and 0.278 nM in assay [2].
Turning to `COCc1nc(C)c(-c2cc(Nc3ncc(-c4ccc(F)c(Cl)c4)cc3Cl)ncc2OCCO)c(C)n1` [Compound I-255], the Ki in assay [1] (setting [3]) was 0.52 nM; in assay [2], 0.36 nM.
For `COCc1nc(C)c(-c2cc(Nc3ncc(-c4ccc(F)cc4F)cc3Cl)ncc2OCCO)c(C)n1` [Compound I-256], the inhibition constant (Ki) came to 0.5 nM in assay [1] (setting [3]) and 0.322 nM in assay [2].
The like results for `COCc1nc(C)c(-c2cc(Nc3ncc(-c4cccc(F)c4)cc3Cl)ncc2OCCO)c(C)n1` [Compound I-257] were, in that order, 0.395 nM and 0.316 nM.
On to `COCc1nc(C)c(-c2cc(Nc3ncc(-c4cc(F)cc(F)c4)cc3Cl)ncc2OCCO)c(C)n1` [Compound I-258], for which the figures for the Ki in assay [1] (setting [3]) and in assay [2] were 0.933 nM and 0.301 nM, respectively.
Consider `COCc1nc(C)c(-c2cc(Nc3ncc(-c4cccc(F)c4F)cc3Cl)ncc2OCCO)c(C)n1` [Compound I-259], for which the inhibitory constant (Ki) in assay [1] (setting [3]) amounted to 0.672 nM; in assay [2], 0.623 nM.
Take `COCc1nc(C)c(-c2cc(Nc3ncc(-c4cccc(C#N)c4)cc3Cl)ncc2OCCO)c(C)n1` [Compound I-260]: the Ki was determined as 2.05 nM in assay [1] (setting [3]) and 2.06 nM in assay [2].
Take `COCc1nc(C)c(-c2cc(Nc3ncc(-c4ccc(OC(F)F)cc4)cc3Cl)ncc2OCCO)c(C)n1` [Compound I-261]: the inhibition constant (Ki) came out at 0.608 nM in assay [1] (setting [3]) and 0.482 nM in assay [2].
For the compound `COCc1nc(C)c(-c2cc(Nc3ncc(-c4cccc(C(F)F)c4)cc3Cl)ncc2OCCO)c(C)n1` [Compound I-262], the Ki in assay [1] (setting [3]) was 0.558 nM; in assay [2], 0.541 nM.
Regarding `COCc1nc(C)c(-c2cc(Nc3ncc(-c4ccc(Cl)cc4F)cc3Cl)ncc2OCCO)c(C)n1` [Compound I-263], the inhibition constant (Ki) in assay [1] (setting [3]) came to 0.577 nM; in assay [2], 0.318 nM.
As to `COCc1ccc(-c2cnc(Nc3cc(-c4c(C)nc(COC)nc4C)c(OCCO)cn3)c(Cl)c2)cc1` [Compound I-264], the results for the inhibition constant (Ki) in assay [1] (setting [3]) and in assay [2] were 0.752 nM and 0.709 nM, respectively.
The like results for `COCc1nc(C)c(-c2cc(Nc3ncc(-c4ccc(C#N)c(F)c4)cc3Cl)ncc2OCCO)c(C)n1` [Compound I-265] were, in that order, 0.972 nM and 0.47 nM.
As for `COCc1nc(C)c(-c2cc(Nc3ncc(OC(C)(F)F)cc3Cl)ncc2OCCO)c(C)n1` [Compound I-266], the Ki in assay [1] (setting [3]) was determined as 1.88 nM; in assay [2], 2.24 nM.
The like results for `Cc1nc(C)c(-c2nc(Nc3ccc(OC(F)F)cc3)c(F)cc2OCCO)c(C)n1` [Compound I-268] were, in that order, 0.958 nM and 0.589 nM.
Take `Cn1ncc(Br)c1-c1cc(Nc2ncc(OC(F)(F)F)cn2)cnc1OCCO` [Compound I-269]: the inhibitory constant (Ki) in assay [1] (setting [3]) is 0.295 nM; in assay [2], 2.85 nM.
For `Cc1nc(C)c(-c2cc(Nc3ncc(OC(F)(F)F)cc3Cl)ncc2OCCO)c(C)n1` [Compound I-270], the inhibition constant (Ki) in assay [1] (setting [3]) is 0.938 nM; in assay [2], 2.74 nM.
Regarding `COCc1nc(C)c(-c2cc(Nc3ccc(-c4ccc(F)cc4)cn3)ncc2OCCO)c(C)n1` [Compound I-272], the values for the inhibition constant (Ki) in assay [1] (setting [3]) and in assay [2] were 0.343 nM and 1.4 nM, respectively.
Take `COCc1nc(C)c(-c2cc(Nc3ccc(-c4ccc(Cl)cc4)cn3)ncc2OCCO)c(C)n1` [Compound I-273]: the inhibitory constant (Ki) in assay [1] (setting [3]) is 0.309 nM; in assay [2], 0.395 nM.
For the compound `Cn1ncc(Br)c1-c1cc(Nc2ncc(Cl)cn2)ncc1OCCO` [Compound I-274], the inhibitory constant (Ki) worked out at 0.219 nM in assay [1] (setting [3]) and 4.5 nM in assay [2].
For the compound `Cn1ncc(Br)c1-c1cc(Nc2cc(C(F)(F)F)c(Cl)cn2)ncc1OCCO` [Compound I-275], the Ki in assay [1] (setting [3]) turned out to be 0.273 nM; in assay [2], 0.722 nM.
In the same order, the values of `Cn1ncc(Br)c1-c1nc(Nc2ccc(C(F)(F)F)cc2)c(F)cc1OCCO` [Compound I-276] are 0.135 nM and 0.267 nM.
Turning to `Cn1ncc(Br)c1-c1cc(Nc2ccc(OC(F)(F)F)cn2)ncc1OCCO` [Compound I-277], the Ki was determined as 0.186 nM in assay [1] and 0.217 nM in assay [2].
Take `Cn1ncc(Br)c1-c1nc(Nc2ccc(Cl)cn2)c(F)cc1OCCO` [Compound I-278]: the Ki turned out to be 0.203 nM in assay [1] (setting [3]) and 3.56 nM in assay [2].
In the same order, the values of `Cn1ncc(Br)c1-c1nc(Nc2ccc(C(F)(F)F)cn2)c(F)cc1OCCO` [Compound I-279] are 0.306 nM and 1.94 nM.
As for `Cn1ncc(Br)c1-c1nc(Nc2ccc(OC(F)(F)F)cn2)c(F)cc1OCCO` [Compound I-280], the figures for the inhibitory constant (Ki) in assay [1] (setting [3]) and in assay [2] were 0.312 nM and 1.58 nM, respectively.
As for `Cn1ncc(Br)c1-c1cc(Nc2ncc(C3CC3)cn2)ncc1OCCO` [Compound I-281], the Ki is 0.668 nM in assay [1] (setting [3]) and 6.55 nM in assay [2].
Turning to `Cc1cnn(C)c1-c1nc(Nc2ccc(Cl)cc2F)c(F)cc1OCCO` [Compound I-282], the Ki stood at 0.223 nM in assay [1] (setting [3]) and 6.19 nM in assay [2].
In the same order, the values of `Cc1cnn(C)c1-c1nc(Nc2ccc(C(F)(F)F)cc2)c(F)cc1OCCO` [Compound I-283] are 0.267 nM and 2.41 nM.
Regarding `Cn1ncc(Br)c1-c1cc(Nc2ccc(Cl)cn2)ncc1OCCO` [Compound I-284], the inhibition constant (Ki) in assay [1] (setting [3]) was 0.301 nM; in assay [2], 2.07 nM.
Regarding `Cn1ncc(Br)c1-c1cc(Nc2nc3ccccc3s2)ncc1OCCO` [Compound I-285], the Ki in assay [1] (setting [3]) was determined as 0.299 nM; in assay [2] it was 7.69 nM.
As for `Cn1ncc(Br)c1-c1cc(Nc2ncc(OC(F)F)cn2)ncc1OCCO` [Compound I-286], the Ki in assay [1] (setting [3]) was 0.6 nM; in assay [2], 3.22 nM.
`Cn1ncc(Br)c1-c1cc(Nc2ncc(OC(F)(F)F)cc2F)ncc1OCCO` [Compound I-287]: the inhibitory constant (Ki) in assay [1] (setting [3]) is 0.28 nM; in assay [2] it was 0.266 nM.
In the case of `Cn1ncc(Br)c1-c1cc(Nc2ccc(OC(F)F)cn2)ncc1OCCO` [Compound I-288], the Ki came to 0.387 nM in assay [1] (setting [3]) and 0.78 nM in assay [2].
With `Cn1ncc(Br)c1-c1nc(Nc2cnc(C(F)(F)F)nc2)c(F)cc1OCCO` [Compound I-289], the inhibitory constant (Ki) in assay [1] (setting [3]) amounted to 0.793 nM; in assay [2] it was 60.2 nM.

For orientation: Ki means the dissociation constant of the complex between target and ligand, obtained from inhibition or displacement.
